# Experimental data as given in ChEMBL document CHEMBL5126543, “Tandem construction of biological relevant aliphatic 5-membered N-heterocycles” (Eur J Med Chem, 2022).
# Where a SMILES comes first, the peptide text is derived from it. [ ]: non-standard residue; d: D form. Pro(cis-4-CF3) = O=C(O)[C@@H]1C[C@H](C(F)(F)F)CN1; Pro(4R-Bn) = O=C(O)[C@@H]1C[C@@H](Cc2ccccc2)CN1; Pro(cis-4-F) = O=C(O)[C@@H]1C[C@H](F)CN1; Pro(4S-NH2) = N[C@@H]1CN[C@H](C(=O)O)C1
# Columns and labels:
# [1] = system: PC-3; test: Cytotoxicity against human PC-3 cells treated for 72 hrs by MTT assay; format: functional, cell-based; settings: PC-3, 72 h
# [2] = system: SK-BR-3; test: Cytotoxicity against human SK-BR-3 cells treated for 72 hrs by MTT assay; format: functional, cell-based; settings: SK-BR-3, 72 h
# [3] = system: A549; test: Cytotoxicity against human A549 cells treated for 72 hrs by MTT assay; format: functional, cell-based; settings: A549, 72 h
# [4] = system: HeLa; test: Cytotoxicity against human HeLa cells treated for 72 hrs by MTT assay; format: functional, cell-based
# [5] = system: MCF7; test: Cytotoxicity against human MCF7 cells treated for 72 hrs by MTT assay; format: functional, cell-based; settings: MCF7, 72 h
# [6] = system: SNB-19; test: Antiproliferative activity against human SNB-19 cells measured after 72 hrs by WST-1 assay; format: functional, cell-based; settings: SNB-19, 72 h
# [7] = system: MDA-MB-231; test: Antiproliferative activity against human MDA-MB-231 cells measured after 72 hrs by WST-1 assay; format: functional, cell-based; settings: MDA-MB-231, 72 h
# [8] = Cytotoxicity against HFF-1 cells measured after 72 hrs by WST-1 assay; format: toxicity, cell-based; settings: human
# [9] = system: C32; test: Antiproliferative activity against human C32 cells measured after 72 hrs by WST-1 assay; format: functional, cell-based; settings: C32, 72 h
# [10] = system: Escherichia coli; test: Antimicrobial activity against Escherichia coli ATCC 25922 incubated for 18 to 20 hrs; format: functional; settings: time 18-20 hrs
# [11] = system: Priestia megaterium; test: Antimicrobial activity against Bacillus megaterium Bm11 incubated for 18 to 20 hrs; format: functional; settings: time 18-20 hrs
# [12] = system: Staphylococcus epidermidis; test: Antimicrobial activity against Staphylococcus epidermidis ATCC 12228 incubated for 18 to 20 hrs; format: functional; settings: time 18-20 hrs
# [13] = system: Pseudomonas aeruginosa; test: Antimicrobial activity against Pseudomonas aeruginosa ATCC 27853 incubated for 18 to 20 hrs; format: functional; settings: time 18-20 hrs
# [14] = system: Candida albicans; test: Antimicrobial activity against Candida albicans ATCC 24433 incubated for 18 to 20 hrs; format: functional; settings: time 18-20 hrs
Structure (SMILES),IC50 [1] [µM],IC50 [2] [µM],IC50 [3] [µM],IC50 [4] [µM],IC50 [5] [µM],IC50 [6] [µM],IC50 [7] [µM],IC50 at 72 h [8] [µM],IC50 [9] [µM],also measured
Clc1ccc(-c2cc(Nc3ccnc4cc(Cl)ccc34)ccc2CN2CCOCC2)cc1,11.7,2.98,> 200,> 200,170,–,–,–,–,–
Clc1ccc(-c2cc(Nc3ccnc4cc(Cl)ccc34)ccc2CN2CCCC2)cc1,42.4,32.7,> 200,32,> 200,–,–,–,–,–
Clc1ccc2c(Nc3ccc(CN4CCCCC4)c(-c4ccccc4)c3)ccnc2c1,74.4,64.3,> 210,5.57,> 200,–,–,–,–,–
CCN(CC)Cc1ccc(Nc2ccnc3cc(Cl)ccc23)cc1-c1ccccc1,34.2,3.65,33.6,> 200,> 200,–,–,–,–,–
Clc1ccc2c(Nc3ccc(CN4CCOCC4)c(-c4ccccc4)c3)ccnc2c1,11.7,76.5,69,54.4,> 200,–,–,–,–,–
Clc1ccc2c(Nc3ccc(CN4CCCC4)c(-c4ccccc4)c3)ccnc2c1,44,0.009,4.38,< 1,7.99,–,–,–,–,–
CN1CCN(Cc2ccc(Nc3ccnc4cc(Cl)ccc34)cc2-c2ccc(Cl)cc2)CC1,24.2,16.8,43.5,< 1,25,–,–,–,–,–
Clc1ccc(-c2cc(Nc3ccnc4cc(Cl)ccc34)ccc2CN2CCCCC2)cc1,> 200,2.98,> 200,> 200,> 200,–,–,–,–,–
Clc1ccc2c(Nc3ccc(CN4CCCC4)cc3)ccnc2c1,42.7,12.7,58.8,28,46.9,–,–,–,–,–
CCN(CC)Cc1ccc(Nc2ccnc3cc(Cl)ccc23)cc1,> 250,121,> 250,2.03,> 250,–,–,–,–,–
Clc1ccc2c(Nc3ccc(CN4CCCCC4)cc3)ccnc2c1,149,33.9,> 250,< 1,69.9,–,–,–,–,–
Clc1ccc2c(Nc3ccc(CN4CCOCC4)cc3)ccnc2c1,11.7,6.16,> 250,< 1,69.5,–,–,–,–,–
CC(C)(C)NCc1ccc(Nc2ccnc3cc(Cl)ccc23)cc1,149,37.3,197,36,> 250,–,–,–,–,–
Cn1cnc2nc(SCC#CCN3CCOCC3)nc(SCC#CCN3CCOCC3)c21,–,–,–,–,–,21.5,50.8,0.37,21.5,–
Cn1c(SCC#CCN2CCCCC2)nc2c1c(=O)[nH]c(=O)n2C,–,–,–,–,–,166,364,30.4,355,–
Cn1c(SCC#CCN2CCCC2)nc2c1c(=O)[nH]c(=O)n2C,–,–,–,–,–,177,472,34.3,51.1,–

Structure (SMILES),IC50 [1] [µM],IC50 [2] [µM],IC50 [3] [µM],IC50 [4] [µM],IC50 [5] [µM],IC50 [6] [µM],IC50 [7] [µM],IC50 at 72 h [8] [µM],IC50 [9] [µM],also measured
Cn1c(SCC#CCN2CCCC2)nc2nc(Cl)nc(SCC#CCN3CCCC3)c21,–,–,–,–,–,0.52,3.83,3.63,4.55,–
CCN(CC)CC#CCSc1nc(SCC#CCN(CC)CC)c2c(ncn2C)n1,–,–,–,–,–,48.9,38.5,5.95,23.9,–
Cn1c(SCC#CCN2CCCCC2)nc2nc(Cl)nc(SCC#CCN3CCCCC3)c21,–,–,–,–,–,11.6,38.1,5.5,19.1,–
CCN(CC)CC#CCSc1nc2c(c(=O)[nH]c(=O)n2C)n1C,–,–,–,–,–,1.48,68.1,3.68,26.4,–
Cn1c(SCC#CCN2CCOCC2)nc2nc(Cl)nc(SCC#CCN3CCOCC3)c21,–,–,–,–,–,26.1,74,36.4,4.08,–
Cn1c(SCC#CCN2CCOCC2)nc2c1c(=O)[nH]c(=O)n2C,–,–,–,–,–,1.39,6.54,5.87,22.7,–
Cn1cnc2nc(SCC#CCN3CCCCC3)nc(SCC#CCN3CCCCC3)c21,–,–,–,–,–,4.64,7.35,3.98,6.39,–
CCN(CC)CC#CCSc1nc(Cl)nc2nc(SCC#CCN(CC)CC)n(C)c12,–,–,–,–,–,2.91,10,1,5.33,–
Cn1cnc2nc(SCC#CCN3CCCC3)nc(SCC#CCN3CCCC3)c21,–,–,–,–,–,19.4,19.9,10,6.81,–
CC[C@H](C)[C@H](NC(=O)[C@H](CCCNC(=N)N)NC(=O)CNC(=O)[C@H](CC(C)C)NC(=O)[C@H](Cc1ccccc1)NC(=O)[C@H](CCCCN)NC(=O)[C@H](CO)NC(=O)[C@H](Cc1ccccc1)NC(=O)[C@H](Cc1c[nH]c2ccccc12)NC(=O)[C@H](CCC(N)=O)NC(=O)[C@@H]1C[C@@H](Cc2ccccc2)CN1C(=O)[C@@H](NC(=O)[C@@H](N)Cc1ccccc1)C(C)C)C(=O)N[C@@H](CC(C)C)C(N)=O (H-FV[Pro(4R-Bn)]QWFSKFLGRIL-NH2),–,–,–,–,–,–,–,–,–,MIC [10]: 25 µM; MIC [11]: 3.12 µM; MIC [12]: 3.12 µM; MIC [13]: 50 µM; MIC [14]: 25 µM
CC[C@H](C)[C@H](NC(=O)[C@H](CCCNC(=N)N)NC(=O)CNC(=O)[C@H](CC(C)C)NC(=O)[C@H](Cc1ccccc1)NC(=O)[C@H](CCCCN)NC(=O)[C@H](CO)NC(=O)[C@H](Cc1ccccc1)NC(=O)[C@H](Cc1c[nH]c2ccccc12)NC(=O)[C@H](CCC(N)=O)NC(=O)[C@@H]1C[C@H](N)CN1C(=O)[C@@H](NC(=O)[C@@H](N)Cc1ccccc1)C(C)C)C(=O)N[C@@H](CC(C)C)C(N)=O (H-FV[Pro(4S-NH2)]QWFSKFLGRIL-NH2),–,–,–,–,–,–,–,–,–,MIC [10]: 3.12 µM; MIC [11]: 3.12 µM; MIC [12]: 3.12 µM; MIC [13]: 3.12 µM; MIC [14]: 12.5 µM
CC[C@H](C)[C@H](NC(=O)[C@H](CCCNC(=N)N)NC(=O)CNC(=O)[C@H](CC(C)C)NC(=O)[C@H](Cc1ccccc1)NC(=O)[C@H](CCCCN)NC(=O)[C@H](CO)NC(=O)[C@H](Cc1ccccc1)NC(=O)[C@H](Cc1c[nH]c2ccccc12)NC(=O)[C@H](CCC(N)=O)NC(=O)[C@@H]1C[C@H](C(F)(F)F)CN1C(=O)[C@@H](NC(=O)[C@@H](N)Cc1ccccc1)C(C)C)C(=O)N[C@@H](CC(C)C)C(N)=O (H-FV[Pro(cis-4-CF3)]QWFSKFLGRIL-NH2),–,–,–,–,–,–,–,–,–,MIC [10]: 12.5 µM; MIC [11]: 3.12 µM; MIC [12]: 3.12 µM; MIC [13]: 25 µM; MIC [14]: 12.5 µM
CC[C@H](C)[C@H](NC(=O)[C@H](CCCNC(=N)N)NC(=O)CNC(=O)[C@H](CC(C)C)NC(=O)[C@H](Cc1ccccc1)NC(=O)[C@H](CCCCN)NC(=O)[C@H](CO)NC(=O)[C@H](Cc1ccccc1)NC(=O)[C@H](Cc1c[nH]c2ccccc12)NC(=O)[C@H](CCC(N)=O)NC(=O)[C@@H]1C[C@H](F)CN1C(=O)[C@@H](NC(=O)[C@@H](N)Cc1ccccc1)C(C)C)C(=O)N[C@@H](CC(C)C)C(N)=O (H-FV[Pro(cis-4-F)]QWFSKFLGRIL-NH2),–,–,–,–,–,–,–,–,–,MIC [10]: 12.5 µM; MIC [11]: 3.12 µM; MIC [12]: 3.12 µM; MIC [13]: 12.5 µM; MIC [14]: 12.5 µM
COc1cc2c(c(OC)c1OC)-c1ccc(OC)c(=O)cc1[C@@H](NC(C)=O)CC2 [COLCHICINE],0.03,0.04,–,–,25,–,–,–,–,–
COc1cccc2c1C(=O)c1c(O)c3c(c(O)c1C2=O)C[C@@](O)(C(=O)CO)C[C@@H]3O[C@H]1C[C@H](N)[C@H](O)[C@H](C)O1 [DOXORUBICIN],1.66,2.36,–,2.45,3.62,–,–,–,–,–
